The values that follow are results of earlier work, collected in patent US6486118B1, “Detergent compositions” (Unilever Home & Personal Care USA, division of Conopco, Inc., priority 1999, dated 2002).

The mark [1] stands for this setting: other common materials, by contrast, at 20° C.

Like-named read-outs stand apart in the source and are kept apart here.

Regarding `O=BO[O-].[Na+]` [Sodium perborate anhydrous], under setting [1], the “Water Solubility (g/100 g)” value was 3.7 g/100 g. Regarding `NC(N)=O` [Urea], under “highly water-soluble materials, grams of solid to form a saturated solution in 100 grams of water at 20° C.”, the “Water Solubility (g/100 g)” value is reported as greater than 100 g/100 g. With `O=P(O)(O)OP(=O)(O)OP(=O)(O)O` [Sodium tripolyphosphate anhydrous], the “Water Solubility (g/100 g)” value under setting [1] is on record as 15 g/100 g.
